According to paper PMC4279406, “Simultaneous targeting of PI3Kδ and a PI3Kδ-dependent MEK1/2-Erk1/2 pathway for therapy in pediatric B-cell acute lymphoblastic leukemia” (Oncotarget, 2014):
pIC50: −log10 of the molar value.

Columns and labels:
[1] = test system: PI3KC2α, PI3KC2γ, PIP4K2α, PIP5K1α and PIP5K1γ; experiment: Selectivity against other lipid kinases; assay type: biochemical
Text: Utilizing the crystal structure of PI3Kδ, we designed and synthesized a series of compounds in an effort to discover new potent and selective PI3Kδ inhibitors, which bind to PI3Kδ differently from CAL-101. […] The benzimidazole group of X-370 extends into the affinity pocket, where its nitrogen acts as a hydrogen bond acceptor for the primary amine of Lys779. The difluoromethyl group of X-370 points toward Pro758 in the hydrophobic affinity pocket. Instead of wedging between Met752 and Trp760, a binding mode utilized by CAL-101 to generate specificity against PI3Kδ (Figure S1), the pyrrole group of X-370 presses tightly against Trp760. These specific interactions of X-370 with p110δ confer a selective and potent inhibition of PI3Kδ. As expected, X-370 inhibited the kinase activity of PI3Kδ in an ATP-competitive manner, with IC50 increasing in concert with ATP levels (Figure 1C), confirming the binding of X-370 in the ATP pocket. […] More than 1000-fold selectivity was seen against other lipid kinases tested including PI3KC2α, PI3KC2γ, PIP4K2α, PIP5K1α and PIP5K1γ. […]
Figure 1 Structure of X-370 and its inhibitory activity against lipid kinases (A) Chemical structure of X-370. […] Relative kinase activity in the presence of 10 μM X-370 compared to DMSO control was measured for the rest of lipid kinases. […]

[2] = target: PI3Kδ (Homo sapiens, UniProt O00329); experiment: Kinase Profiler lipid kinase IC50; assay type: biochemical; design: purchased Millipore (Kinase Profiler Services, United Kingdom); details: ATP at Km of the isoform; 10-point half-log dilution from 1000 nM
Chain of PI3Kδ (O00329 whole entry, canonical isoform): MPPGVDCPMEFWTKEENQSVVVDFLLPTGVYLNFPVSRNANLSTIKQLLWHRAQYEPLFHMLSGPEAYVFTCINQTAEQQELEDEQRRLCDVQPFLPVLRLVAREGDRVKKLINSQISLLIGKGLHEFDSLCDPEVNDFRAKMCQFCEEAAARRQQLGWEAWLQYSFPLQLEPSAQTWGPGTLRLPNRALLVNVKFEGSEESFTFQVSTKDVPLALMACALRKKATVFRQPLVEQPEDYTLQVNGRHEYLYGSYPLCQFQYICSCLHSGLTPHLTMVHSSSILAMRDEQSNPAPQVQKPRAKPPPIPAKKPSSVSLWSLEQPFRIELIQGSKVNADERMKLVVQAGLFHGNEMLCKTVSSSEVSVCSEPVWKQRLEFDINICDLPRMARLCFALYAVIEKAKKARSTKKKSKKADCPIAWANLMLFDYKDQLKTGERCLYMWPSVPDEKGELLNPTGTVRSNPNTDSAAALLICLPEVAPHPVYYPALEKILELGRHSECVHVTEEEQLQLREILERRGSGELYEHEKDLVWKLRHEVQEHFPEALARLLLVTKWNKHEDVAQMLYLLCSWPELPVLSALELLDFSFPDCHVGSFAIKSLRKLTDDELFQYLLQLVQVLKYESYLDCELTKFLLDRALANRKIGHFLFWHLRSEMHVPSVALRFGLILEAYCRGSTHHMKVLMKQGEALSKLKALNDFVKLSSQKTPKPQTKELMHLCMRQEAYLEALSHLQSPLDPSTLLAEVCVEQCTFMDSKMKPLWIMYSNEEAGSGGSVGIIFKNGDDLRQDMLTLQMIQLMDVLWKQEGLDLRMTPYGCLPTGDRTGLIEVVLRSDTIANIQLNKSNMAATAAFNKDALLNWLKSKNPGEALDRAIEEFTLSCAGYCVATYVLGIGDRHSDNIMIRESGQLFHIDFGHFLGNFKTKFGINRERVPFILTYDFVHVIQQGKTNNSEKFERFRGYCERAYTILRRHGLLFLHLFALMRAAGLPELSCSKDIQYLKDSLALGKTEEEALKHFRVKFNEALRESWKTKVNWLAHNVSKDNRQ
Chain of PI3Kδ (P27986 whole entry partner, canonical isoform): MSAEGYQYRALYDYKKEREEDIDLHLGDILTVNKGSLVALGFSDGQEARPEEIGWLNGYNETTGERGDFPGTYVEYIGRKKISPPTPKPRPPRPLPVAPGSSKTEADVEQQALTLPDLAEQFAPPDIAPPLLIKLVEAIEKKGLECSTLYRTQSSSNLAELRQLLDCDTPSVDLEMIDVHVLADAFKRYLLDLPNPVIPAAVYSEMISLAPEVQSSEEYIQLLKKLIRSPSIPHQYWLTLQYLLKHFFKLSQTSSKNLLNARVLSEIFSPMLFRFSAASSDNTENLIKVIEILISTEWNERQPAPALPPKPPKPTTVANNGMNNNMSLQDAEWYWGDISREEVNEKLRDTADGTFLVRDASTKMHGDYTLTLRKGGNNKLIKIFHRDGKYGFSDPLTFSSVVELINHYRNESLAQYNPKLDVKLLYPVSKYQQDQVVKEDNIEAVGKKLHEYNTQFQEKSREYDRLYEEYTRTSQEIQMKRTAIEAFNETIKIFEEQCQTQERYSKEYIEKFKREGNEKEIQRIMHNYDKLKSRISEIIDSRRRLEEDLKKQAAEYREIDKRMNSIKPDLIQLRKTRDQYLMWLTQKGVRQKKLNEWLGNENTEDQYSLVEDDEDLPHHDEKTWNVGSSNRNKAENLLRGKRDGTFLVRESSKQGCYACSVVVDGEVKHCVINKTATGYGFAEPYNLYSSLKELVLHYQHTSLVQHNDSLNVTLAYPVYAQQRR
Experimental: Figure 1 Structure of X-370 and its inhibitory activity against lipid kinases (A) Chemical structure of X-370. (B) X-370 docked to the crystal structure of PI3Kδ. The model was generated based on the co-crystal structure of PI3Kδ and ZSTK474 (PDB ID: 2WXL). (C) IC50 of X-370 against PI3Kδ increased along with ATP concentration. […] Data was obtained from Kinase Profiler Services (Millipore, United Kingdom). Briefly, X-370 was solved in DMSO at a concentration of 10 mM, 10-point kinase inhibitory activity was measured over concentrations in a half-log dilution series started at 1000 nM with ATP at a concentration consistent with Km of each isoform of class I PI3K and IC50s were calculated. Relative kinase activity in the presence of 10 μM X-370 compared to DMSO control was measured for the rest of lipid kinases. […]
In vitro kinase profile assays were analyzed by the Kinase Profiler Service (Millipore, United Kingdom) following its guidelines. […] The PI3K kinase activity was determined in the increasing concentration of ATP and X-370 with PI3-Kinase HTRF™ Assay kit (Millipore) as described previously.

[3] = test system: Raji-R cells; experiment: Signaling by Western blot in Raji-R cells; assay type: cell-based, human; details: 1 h
Experimental: Raji and SU-DHL-6 cells were treated with X-370 for 1 h (left panel) or treated with 0.5 μM X-370 for indicated times (middle panel). Right panel, Raji cells were incubated in fresh medium following treatment with 0.5 μM X-370 for 1 h. Indicated proteins were detected. (B) Raji-R (the rituximab-resistant derivatives of Raji cells) cells were resistant to X-370. The activity of X-370 on the proliferation of Raji parent and Raji-R cells was determined by CCK-8 assay as described in the methods section. (C) X-370 blocked phosphorylation of Akt but not Erk1/2 in Raji-R cells. Raji-R cells were treated with X-370 for 1h and indicated proteins were detected. Data shown are representative from three independent experiments.
Simultaneous targeting of PI3Kδ and a PI3Kδ-dependent MEK1/2-Erk1/2 pathway for therapy in pediatric B-cell acute lymphoblastic […]
Cells were treated as indicated conditions and then subjected to lysate to perform standard Western blot as described previously1. Briefly, whole-cell lysates and SDS-loading buffer diluted cell fractions were analyzed on SDS-PAGE gels. […]
Raji cells were treated with or without X-370 at 1 μM, 5μM and 10 μM for 24, 48 and 72 hours, thenwere measured using the Caspase-Glo® 3/7 Assay (Promega, US) following the protocol and relative caspase-3/7 activity was normalized to cell number which DMSO control was the base line. […]

O=C(N1CCCC1)N1CCC(n2cnc3c(-n4c(C(F)F)nc5ccccc54)nc(N4CCOCC4)nc32)CC1 [X-370]
selectivity for PI3Kδ against other lipid kinases [1]: More than 1000 fold
pIC50 [2]: 8.15
Akt and S6k1 phosphorylation [3]: significantly inhibited
level of phosphorylated Erk1/2 [3]: negligible activity
